Measured values taken from PMC10186300 (Scientific Reports, 2023).
Values joined by “and” are separate entries in the source; they are usually repeats but may differ in a detail not shown here. Equal values may be shown once. Residues, ends and D or L forms follow the SMILES beside them. *: point of attachment. Dansyl = CN(C)c1cccc2c(S(=O)(=O)*)cccc12

How the values were obtained:
[1] = molecular target: T1, PDZ2 domain of ZO1 (Homo sapiens, UniProt Q07157, F207W); assay: biochemical; format: binding
T1 sequence (Q07157 186-264 F207W limits assumed): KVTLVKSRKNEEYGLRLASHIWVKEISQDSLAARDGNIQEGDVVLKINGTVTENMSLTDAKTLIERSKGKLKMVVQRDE

[2] = molecular target: T1, PDZ2 domain of ZO1; assay: biochemical; format: binding; conditions: pH 7

| Compound | change in fluorescence upon binding (negative control) ([1]; pH 7) | Kd [1] | koff [2] |
| --- | --- | --- | --- |
| ENVGLMQQQK [reference compound] | no change in fluorescence upon binding |  |  |
| CC(C)C[C@H](NC(=O)[C@@H]1CCCN1C(=O)[C@@H]1CCCN1C(=O)[C@H](CCCCN)NC(=O)[C@H](CO)NS(=O)(=O)c1cccc2c(N(C)C)cccc12)C(=O)N1CCC[C@H]1C(=O)N1CCC[C@H]1C(=O)N[C@@H](CC(=O)O)C(=O)N[C@@H](CCC(=O)O)C(=O)N[C@@H](Cc1c[nH]c2ccccc12)C(=O)N[C@H](C(=O)O)C(C)C [MERS-CoV E peptide] (Dansyl-SKPPLPPDEWV-OH) |  | 14 ± 1 µM | 154 ± 3 s⁻¹ |
| CC(C)C[C@H](NC(=O)[C@H](CC(=O)O)NC(=O)[C@@H]1CCCN1C(=O)[C@@H](NC(=O)[C@H](CCCNC(=N)N)NC(=O)[C@H](CO)NC(=O)[C@H](CO)NC(=O)[C@H](CC(N)=O)NS(=O)(=O)c1cccc2c(N(C)C)cccc12)C(C)C)C(=O)N[C@@H](CC(C)C)C(=O)N[C@H](C(=O)O)C(C)C [SARS-CoV-2 E peptide] (Dansyl-NSSRVPDLLV-OH) |  | 15.8 µM and 17.4 µM and 15.2 µM | 9.5 s⁻¹ and 8.7 ± 0.2 s⁻¹ and 6.8 ± 0.1 s⁻¹ and 9.1 ± 0.2 s⁻¹ |
| CC(C)C[C@H](NC(=O)[C@H](CC(=O)O)NC(=O)[C@@H]1CCCN1C(=O)[C@@H](NC(=O)CNC(=O)[C@H](CCC(=O)O)NC(=O)[C@H](CO)NC(=O)[C@H](CO)NC(=O)[C@H](CC(N)=O)NS(=O)(=O)c1cccc2c(N(C)C)cccc12)C(C)C)C(=O)N[C@@H](CC(C)C)C(=O)N[C@H](C(=O)O)C(C)C [SARS-CoV E peptide] (Dansyl-NSSEGVPDLLV-OH) |  | 4.7 µM and 5 µM and 8.6 µM | 9 s⁻¹ and 7.0 ± 0.1 s⁻¹ and 6.9 ± 0.1 s⁻¹ and 6.2 ± 0.1 s⁻¹ |
